Laboratory results from patent US20220184041A1, “(AZA)Benzothiazolyl Substituted Pyrazole Compounds” (Pfizer Inc., priority 2020, published 2022).
Read-outs that look alike come from different tables or passages of the source.

Tests used:
Bap-tagged TTR protein = target: T1, Bap-tagged TTR protein (Homo sapiens, UniProt P02766); experiment: KD determination by SPR (Surface Plasmon Resonance binding assay); conditions: for Kd: 1:1 binding model, read-out: Geometric Mean KD (μM) [SPR]
T1 construct: Bap tag (biotin acceptor peptide, by own knowledge)
Method: Affinity and Reversibility—The binding affinity and kinetics of binding were measured using Surface Plasmon Resonance based binding assay. […] Bap-tagged TTR protein was captured on a Streptavidin coated sensor chip to achieve about 2000 to 3000 RUs of surface density. All the samples were prepared in buffer consisting of 10 mM Sodium Phosphate, pH 7.6, 100 mM KCl, 0.005% Tween-20 and 2% DMSO. The same buffer was used as the running buffer during the experiments. Compound samples were injected at a flow rate of 30 μL/min for 90 seconds of association time followed by at least 240 seconds of dissociation period. The compounds were tested in a concentration series consisting of at least 6 samples (usually 10) made with 5-fold, 3-fold, or 2-fold dilution. […] Multiple blank injections were run before and after each compound series to allow double reference subtraction during data processing and analysis. […] A DMSO curve was run during each experiment to properly correct for excluded volume.

[1] = target: T2, human TTR (biotinylated recombinant protein) (Homo sapiens, UniProt P02766); experiment: TTR SPA binding assay ([3H] tafamidis displacement), EC50 determination; conditions: read-out: Geometric Mean EC50
T2 construct: biotin (biotinylated)
Method: Binding of Examples to Transthyretin—EC50 Determination
Briefly, assays were prepared at room temperature in 384-well plates (Corning, 3767) containing 200 nL of test compound in DMSO (or DMSO as vehicle). […] The plates were incubated 1 hour prior to addition of 20 μL of 1.25 mg/mL SPA beads diluted in assay buffer. The assays were incubated an additional 10 hours to allow binding to reach equilibrium and the amount of receptor-ligand complex was determined by liquid scintillation counting using a 1450 Microbeta Trilux (Wallac).
The % effect values for test wells were calculated based on the total binding (vehicle, 0% effect) and non-specific binding (unlabeled ligand, 100% effect) wells on each assay plate. EC50 values were then determined using a standard 4 parameter logistic dose response equation.

[2] = target: Recombinant wild-type TTR (Homo sapiens, UniProt P02766); experiment: KD determination by ITC (Isothermal Titration Calorimetry); conditions: 25° C., sequential binding model with 2 sites
Method: KD Determination by ITC—Isothermal Titration Calorimetry
Recombinant wild-type TTR was diluted to 6.9 μM in 100 mM potassium chloride, 10 mM sodium phosphate pH 7.6, 2.5% DMSO, then degassed and transferred to the sample cell of a VP-ITC instrument (MicroCal). Compounds were diluted to 120 μM in an identical buffer, degassed, and injected 7 μL at a time into the protein solution at 25° C. with a reference power of 10 μCal/sec and 300 second spacing between injections.
Data were analyzed using VP-ITC analysis software in Origin. The data were corrected for heat of dilution then fit to a sequential binding model with 2 sites and K1, ΔH1, K2, and ΔH2 as independent parameters. If necessary, the protein concentration was adjusted by fitting the data to a two-independent-sites model and using the calculated N values to estimate the actual protein concentration that yields two total sites.

[3] = SPA, 50 nM [3H] tafamidis, 100 ng human TTR
[4] = first site, read-out: Geometric Mean KD1 (μM) [ITC]
[5] = second site, read-out: Geometric Mean KD2 (μM) [ITC]

Row | Compound | Kd (Bap-tagged TTR protein) | EC50 [1, 3] | other results
1 | Cc1n[nH]c(C)c1-c1ccc(C#N)c2scnc12 [Example 5, 4-(3,5-dimethyl-1H-pyrazol-4-yl)-1,3-benzothiazole-7-carbonitrile] | 0.052 µM | 52 nM | 
2 | Cc1n[nH]c(C)c1-c1cccc2ncsc12 [Example 2, 7-(3,5-dimethyl-1H-pyrazol-4-yl)-1,3-benzothiazole] |  |  | Kd [2, 4]: 0.005 µM; Kd [2, 5]: 0.431 µM
3 | Cc1n[nH]c(C)c1-c1ccc(C(F)(F)F)c2scnc12 [Example 4, 4-(3,5-dimethyl-1H-pyrazol-4-yl)-7-(trifluoromethyl)-1,3-benzothiazole] | 0.049 µM | 40 nM | 
4 | Cc1[nH]nc(C#N)c1-c1cccc2scnc12 [Example 7, 4-(1,3-benzothiazol-4-yl)-5-methyl-1H-pyrazole-3-carbonitrile] | 0.074 µM | 66.1 nM | 
5 | O=C(O)c1ccc2nc(-c3cc(Cl)cc(Cl)c3)oc2c1 [tafamidis, 2-(3,5-dichlorophenyI)-1,3-benzoxazole-6-carboxylic acid, reference compound] |  |  | reversibility of binding to TTR (Bap-tagged TTR protein): reversible; t1/2 (Bap-tagged TTR protein; tafamidis binding to TTR, n=24): 40.8 s
6 | Cc1[nH]nc(C#N)c1-c1ccc(C(F)(F)F)c2scnc12 [Example 9, 5-methyl-4-[7-(trifluoromethyl)-1,3-benzothiazol-4-yl]-1H-pyrazole-3-carbonitrile] | 0.62 µM |  | EC50 [1]: 35.5 nM
7 | Cc1[nH]nc(C#N)c1-c1ccc(C)c2scnc12 [Example 8, 5-methyl-4-(7-methyl-1,3-benzothiazol-4-yl)-1H-pyrazole-3-carbonitrile] | 0.027 µM |  | EC50 [1]: 19.6 nM
8 | Cc1nc2c(-c3c(C)n[nH]c3C)cccc2s1 [Example 6, 4-(3,5-dimethyl-1H-pyrazol-4-yl)-2-methyl-1,3-benzothiazole] | 0.574 µM | 1780 nM | 
9 | Cc1n[nH]c(C)c1-c1cccc2scnc12 [Example 1, 4-(3,5-dimethyl-1H-pyrazol-4-yl)-1,3-benzothiazole] | 0.039 µM | 31 nM | Kd [2, 4]: 0.025 µM; Kd [2, 5]: 0.458 µM
10 | Cc1n[nH]c(C)c1-c1nccc2scnc12 [Example 10, 4-(3,5-dimethyl-1H-pyrazol-4-yl)[1,3]thiazolo[4,5-c]pyridine] | 0.297 µM | 894 nM | 
11 | Cc1n[nH]c(C)c1-c1ccc(C)c2scnc12 [Example 3, 4-(3,5-dimethyl-1H-pyrazol-4-yl)-7-methyl-1,3-benzothiazole] | 0.02 µM | 20 nM | 

Further lines, with some results ahead:

Row | Kd (Bap-tagged TTR protein) | EC50 [1, 3] | Compound | other results
12 | 0.027 µM |  | Cc1n[nH]c(C)c1-c1cc(F)cc2scnc12 [Example 15, 4-(3,5-dimethyl-1H-pyrazol-4-yl)-6-fluoro-1,3-benzothiazole] | EC50 [1]: 20.5 nM
13 |  | 165 nM | Cc1n[nH]c(C)c1-c1ccnc2scnc12 [Example 19, 7-(3,5-dimethyl-1H-pyrazol-4-yl)[1,3]thiazolo[5,4-b]pyridine] | 
14 |  | 37.2 nM | Cc1n[nH]c(C)c1-c1ccc(F)c2scnc12 [Example 12, 4-(3,5-dimethyl-1H-pyrazol-4-yl)-7-fluoro-1,3-benzothiazole] | 
15 |  | 36.3 nM | COc1ccc(-c2c(C)n[nH]c2C)c2ncsc12 [Example 11, 4-(3,5-dimethyl-1H-pyrazol-4-yl)-7-methoxy-1,3-benzothiazole] | 
16 | 0.058 µM |  | Cc1cc(-c2c(C)n[nH]c2C)c2ncsc2c1 [Example 13, 4-(3,5-dimethyl-1H-pyrazol-4-yl)-6-methyl-1,3-benzothiazole] | EC50 [1]: 21.4 nM
17 |  | 159 nM | Cc1n[nH]c(C)c1-c1cc(C#N)cc2scnc12 [Example 16, 4-(3,5-dimethyl-1H-pyrazol-4-yl)-1,3-benzothiazole-6-carbonitrile] | 
18 |  | 133 nM | Cc1[nH]nc(C(F)(F)F)c1-c1cccc2scnc12 [Example 18, 4-[5-methyl-3-(trifluoromethyl)-1H-pyrazol-4-yl]-1,3-benzothiazole] | 
19 | 0.031 µM |  | COc1cc(-c2c(C)n[nH]c2C)c2ncsc2c1 [Example 14, 4-(3,5-dimethyl-1H-pyrazol-4-yl)-6-methoxy-1,3-benzothiazole] | EC50 [1]: 24.5 nM
20 |  | 28.7 nM | Cc1n[nH]c(C)c1-c1c(F)ccc2scnc12 [Example 17, 4-(3,5-dimethyl-1H-pyrazol-4-yl)-5-fluoro-1,3-benzothiazole] | 
